Measurements: ChEMBL document CHEMBL5154842, “Unique Carbazole-Oxadiazole Derivatives as New Potential Antibiotics for Combating Gram-Positive and -Negative Bacteria” (J Med Chem, 2022)
≈ marks a conversion by molar mass, not a printed value. Calls of active or inactive are those of the source. The calls are words filed in the database; no cut-off is given here.

Columns and labels:
[1] = tested on: Escherichia coli; test: Antibacterial activity against Escherichia coli 25922 assessed as inhibition of bacterial growth incubated for 24 hrs by CLSI protocol based two fold serial dilution method; type: functional
[2] = Hemolytic activity in human RBC assessed as hemolysis at 1 to 32 ug/ml measured after 60 mins by microplate reader assay relative to control; type: toxicity, cell-based, Erythrocyte; conditions: red blood cells (erythrocytes), at 1 to 32 µg/mL, dose 1-32 µg/ml, read-out: Activity
[3] = tested on: Klebsiella pneumoniae; test: Antibacterial activity against Klebsiella pneumonia assessed as inhibition of bacterial growth incubated for 24 hrs by CLSI protocol based two fold serial dilution method; type: functional
[4] = tested on: Staphylococcus aureus; test: Antibacterial activity against Staphylococcus aureus assessed as inhibition of bacterial growth incubated for 24 hrs by CLSI protocol based two fold serial dilution method; type: functional
[5] = tested on: HeLa; test: Cytotoxicity against human HeLa cells assessed as cell viability at 0.5 to 64 ug/ml incubated for 24 hrs by MTT assay; type: toxicity, cell-based; conditions: dose 0.5-64 µg/ml
[6] = tested on: Enterococcus faecalis; test: Antibacterial activity against Enterococcus faecalis assessed as inhibition of bacterial growth incubated for 24 hrs by CLSI protocol based two fold serial dilution method; type: functional
[7] = tested on: HEK-293T; test: Cytotoxicity against human HEK293T cells assessed as cell viability at 0.5 to 64 ug/ml incubated for 24 hrs by MTT assay; type: toxicity, cell-based; conditions: dose 0.5-64 µg/ml
[8] = tested on: Cell membrane; test: Induction of cell membrane disruption in Pseudomonas aeruginosa ATCC 27853 assessed as increase in nucleotides leakage at 0.5 to 6 ug/ml incubated under agitation condition by UV absorption based analysis; type: subcellular; conditions: dose 0.5-6 µg/ml
[9] = tested on: Pseudomonas aeruginosa; test: Antibacterial activity against Pseudomonas aeruginosa assessed as inhibition of bacterial growth incubated for 24 hrs by CLSI protocol based two fold serial dilution method; type: functional
[10] = tested on: Staphylococcus aureus; test: Antibacterial activity against methicillin-resistant Staphylococcus aureus N315 assessed as inhibition of bacterial growth at 0.5 to 16 ug/ml measured after 24 hrs by microplate reader assay; type: functional, organism-based; conditions: dose 0.5-16 µg/ml
[11] = tested on: Acinetobacter baumannii; test: Antibacterial activity against Acinetobacter baumannii assessed as inhibition of bacterial growth incubated for 24 hrs by CLSI protocol based two fold serial dilution method; type: functional
[12] = tested on: Staphylococcus aureus; test: Antibacterial activity against methicillin-resistant Staphylococcus aureus N315 assessed as increase in germicidal effect at 0.5 ug/ml measured after 7 hrs by microplate reader assay; type: functional, organism-based; conditions: dose 0.5 µg/ml
[13] = tested on: Cell membrane; test: Induction of outer membrane permeabilization in Pseudomonas aeruginosa ATCC 27853 assessed as increase in NPN uptake by measuring increase in fluorescence intensity at 1 ug/ml by NPN-dye based fluorescence analysis; conditions: dose 1.0 µg/ml
[14] = tested on: Pseudomonas aeruginosa; test: Antibacterial activity against Pseudomonas aeruginosa ATCC 27853 assessed as inhibition of bacterial growth incubated for 24 hrs by CLSI protocol based two fold serial dilution method; type: functional
[15] = tested on: Staphylococcus aureus; test: Antibacterial activity against Staphylococcus aureus 25923 assessed as inhibition of bacterial growth incubated for 24 hrs by CLSI protocol based two fold serial dilution method; type: functional
[16] = tested on: Escherichia coli; test: Antibacterial activity against Escherichia coli assessed as inhibition of bacterial growth incubated for 24 hrs by CLSI protocol based two fold serial dilution method; type: functional
[17] = tested on: Cell membrane; test: Induction of inner membrane permeabilization in Pseudomonas aeruginosa ATCC 27853 assessed as increase in PI uptake by measuring increase in fluorescence intensity at 1 to 8 ug/ml incubated for 30 mins by calcein-AM/PI staining based fluorescence microscopic analysis; conditions: dose 1-8 µg/ml
[18] = tested on: Staphylococcus aureus; test: Antibacterial activity against methicillin-resistant Staphylococcus aureus N315 assessed as inhibition of bacterial growth at 0.25 to 64 ug/ml incubated for 24 hrs by Alamar blue assay; type: functional, organism-based; conditions: dose 0.25-64 µg/ml
[19] = tested on: Staphylococcus aureus; test: Antibacterial activity against methicillin-resistant Staphylococcus aureus N315 assessed as inhibition of bacterial growth incubated for 24 hrs by CLSI protocol based two fold serial dilution method; type: functional
[20] = tested on: Staphylococcus aureus; test: Antibacterial activity against Staphylococcus aureus 29213 assessed as inhibition of bacterial growth incubated for 24 hrs by CLSI protocol based two fold serial dilution method; type: functional
[21] = tested on: Cell membrane; test: Induction of cell membrane disruption in Pseudomonas aeruginosa ATCC 27853 assessed as increase in protein leakage at 0.5 to 6 ug/ml incubated under agitation condition by Bradford assay; conditions: dose 0.5-6 µg/ml
[22] = tested on: Pseudomonas aeruginosa; test: Antibacterial activity against Pseudomonas aeruginosa ATCC 27853 assessed as change in susceptibility at sub-MIC treated over 9 serial passages measured after 9 days by resistance development assay; type: functional, organism-based; conditions: time 9.0 day
[23] = tested on: Staphylococcus aureus; test: Antibacterial activity against Staphylococcus aureus CMCC (B) 26003 assessed as inhibition of bacterial growth incubated for 24 hrs by CLSI protocol based two fold serial dilution method; type: functional
[24] = tested on: Cell membrane; test: Induction of inner membrane permeabilization in methicillin-resistant Staphylococcus aureus N315 assessed as increase in PI uptake by measuring increase in fluorescence intensity at 1 to 8 ug/ml incubated for 30 mins by calcein-AM/PI staining based fluorescence microscopic analysis; conditions: dose 1-8 µg/ml, DDE = dose-dependent effect
[25] = tested on: Cell membrane; test: Induction of cell membrane disruption in methicillin-resistant Staphylococcus aureus N315 assessed as increase in nucleotides leakage at 0.5 to 6 ug/ml incubated under agitation condition by UV absorption based analysis; type: subcellular; conditions: dose 0.5-6 µg/ml
[26] = Toxicity against Balb/c mouse assessed as body weight at 100 mg/kg, iv administered every 2 days measured after 1 week; type: organism-based; conditions: in vivo, 168 h, time 1 weeks
[27] = tested on: Cell membrane; test: Induction of cell membrane disruption in methicillin-resistant Staphylococcus aureus N315 assessed as increase in protein leakage at 0.5 to 6 ug/ml incubated under agitation condition by Bradford assay; conditions: dose 0.5-6 µg/ml
[28] = tested on: Staphylococcus aureus; test: Antibacterial activity against methicillin-resistant Staphylococcus aureus N315 assessed as increase in bactericidal effect at 2 to 8 ug/ml measured after 24 hrs by microplate reader assay; type: functional, organism-based; conditions: dose 2-8 µg/ml
[29] = tested on: Staphylococcus aureus; test: Antibacterial activity against Staphylococcus aureus CMCC (B) 26001 assessed as inhibition of bacterial growth incubated for 24 hrs by CLSI protocol based two fold serial dilution method; type: functional
[30] = tested on: Staphylococcus aureus; test: Antibacterial activity against Staphylococcus aureus ATCC 12600 assessed as inhibition of bacterial growth incubated for 24 hrs by CLSI protocol based two fold serial dilution method; type: functional
[31] = tested on: Staphylococcus aureus; test: Antibacterial activity against methicillin-resistant Staphylococcus aureus ATCC 43300 assessed as inhibition of bacterial growth incubated for 24 hrs by CLSI protocol based two fold serial dilution method; type: functional
[32] = tested on: Staphylococcus aureus; test: Antibacterial activity against Staphylococcus aureus ATCC 6583 assessed as inhibition of bacterial growth incubated for 24 hrs by CLSI protocol based two fold serial dilution method; type: functional

Row | Structure (SMILES) | MIC [1] | hemolysis at 1 h [2] | MIC [3] | MIC [4] | Activity [5] | MIC [6] | Activity [7] | Activity [8] | MIC [9] | Activity [10] | MIC [11] | Activity [13] | MIC [14] | MIC [15] | MIC [16] | Activity [17] | Activity [18] | MIC [19] | MIC [20] | Activity [21] | further results
1 | C=CCn1c2ccccc2c2c(OCc3nnn[nH]3)cccc21 | 32 µg/mL (≈ 105 µM) | < 3% | 64 µg/mL (≈ 210 µM) | 128 µg/mL (≈ 419 µM) | Non-Toxic | 4 µg/mL (≈ 13.1 µM) | Non-Toxic | Active | 128 µg/mL (≈ 419 µM) | Active | 128 µg/mL (≈ 419 µM) | Active | 0.5 µg/mL (≈ 1.64 µM) | 64 µg/mL (≈ 210 µM) | 1 µg/mL (≈ 3.28 µM) | Active | Active | 2 µg/mL (≈ 6.55 µM) | 32 µg/mL (≈ 105 µM) | Active | Activity [12]: Active
2 | CCn1c2ccccc2c2c(OCc3nnn[nH]3)cccc21 | 64 µg/mL (≈ 218 µM) | < 3% | 64 µg/mL (≈ 218 µM) | 128 µg/mL (≈ 436 µM) | Non-Toxic | 4 µg/mL (≈ 13.6 µM) | Non-Toxic | Active | 256 µg/mL (≈ 873 µM) | Active | 64 µg/mL (≈ 218 µM) | Active | 1 µg/mL (≈ 3.41 µM) | 32 µg/mL (≈ 109 µM) | 8 µg/mL (≈ 27.3 µM) | Active | Active | 2 µg/mL (≈ 6.82 µM) | 32 µg/mL (≈ 109 µM) | Active | 
3 | CCn1c2ccccc2c2c(OCc3nnc(S)o3)cccc21 | 8 µg/mL (≈ 24.6 µM) |  | 4 µg/mL (≈ 12.3 µM) | 256 µg/mL (≈ 787 µM) |  | 8 µg/mL (≈ 24.6 µM) |  |  | 256 µg/mL (≈ 787 µM) |  | 8 µg/mL (≈ 24.6 µM) |  | 0.5 µg/mL (≈ 1.54 µM) | 4 µg/mL (≈ 12.3 µM) | 8 µg/mL (≈ 24.6 µM) |  |  | 2 µg/mL (≈ 6.15 µM) | 8 µg/mL (≈ 24.6 µM) |  | Activity [22]: Active
4 | C=CCOc1cccc2c1c1ccccc1n2Cc1nnc(S)o1 | 0.25 µg/mL (≈ 0.741 µM) | < 3% | 4 µg/mL (≈ 11.9 µM) | 256 µg/mL (≈ 759 µM) | Non-Toxic | 1 µg/mL (≈ 2.96 µM) | Non-Toxic |  | 128 µg/mL (≈ 379 µM) | Active | 0.25 µg/mL (≈ 0.741 µM) |  | 4 µg/mL (≈ 11.9 µM) | 8 µg/mL (≈ 23.7 µM) | 4 µg/mL (≈ 11.9 µM) |  | Active | 2 µg/mL (≈ 5.93 µM) | 0.25 µg/mL (≈ 0.741 µM) |  | MIC [23]: 0.25 µg/mL (≈ 0.741 µM); Activity [24]: Dde; Activity [25]: Active; Activity [26]: Non-Toxic; Activity [27]: Active; Activity [28]: Active; MIC [29]: 0.25 µg/mL (≈ 0.741 µM); MIC [30]: 0.25 µg/mL (≈ 0.741 µM); MIC [31]: 0.25 µg/mL (≈ 0.741 µM); MIC [32]: 0.25 µg/mL (≈ 0.741 µM)
5 | C=CCn1c2ccccc2c2c(OCc3nnc(S)o3)cccc21 | 8 µg/mL (≈ 23.7 µM) |  | 4 µg/mL (≈ 11.9 µM) | 256 µg/mL (≈ 759 µM) |  | 64 µg/mL (≈ 190 µM) |  |  | 256 µg/mL (≈ 759 µM) |  | 8 µg/mL (≈ 23.7 µM) |  | 0.5 µg/mL (≈ 1.48 µM) | 4 µg/mL (≈ 11.9 µM) | 8 µg/mL (≈ 23.7 µM) |  |  | 1 µg/mL (≈ 2.96 µM) | 4 µg/mL (≈ 11.9 µM) |  | Activity [22]: Active
